Data on ten compounds can be found in patent publication US20260015350A1, “AZAQUINAZOLINE PAN-KRAS INHIBITORS” (Mirati Therapeutics, Inc., priority 2022, published 2026).

A value given as a limit tells only on which side of the number the result lay.

One assay has as its target T1, KRas^G12D (Homo sapiens, UniProt P01116, G12D).
T1 construct: Biotinylated KRas (corresponding to amino acids 1-169, produced at Accelegan Inc.); biotin (biotinylated); purchased Accelegan Inc
Put plainly: KRas binding assay (TR-FRET tracer displacement), KRas G12D.

For the next assay, the target named is T2, KRas^G12R (Homo sapiens, UniProt P01116, G12R).
T2 construct: Biotinylated KRas (corresponding to amino acids 1-169, produced at Accelegan Inc.); biotin (biotinylated); purchased Accelegan Inc
Description: KRas binding assay (TR-FRET tracer displacement), KRas G12R.

Assay [1] concerns KRas-mediated phosphorylation of ERK in H727 cells. Put plainly: Inhibition of KRas-mediated phosphorylation of ERK (Cisbio HTRF pERK), H727 cells. In kind it is cell-based. As to conditions: Homo sapiens; for IC50: NCI-H727, H727 cells, HTRF pERK. The procedure, abridged:
(§1)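 6,000 cells/well; cpd 10 uM top, 3-fold x10, 0.8% DMSO final; 3 hr incubation; Min ctrl Trametinib 0.2 uM; lysis 40 min 4° C shaking; d2 + Cryptate Ab mix, 2 hr RT; HTRF read.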
(In TR-FRET formats the signal depends on donor and acceptor labels being close together.)

In the next assay the target is T3, KRas^G12V (Homo sapiens, UniProt P01116, G12V).
T3 construct: Biotinylated KRas (corresponding to amino acids 1-169, produced at Accelegan Inc.); biotin (biotinylated); purchased Accelegan Inc
Description: KRas binding assay (TR-FRET tracer displacement), KRas G12V.

The test system of assay [2] is KRas-mediated phosphorylation of ERK in AsPC-1 cells. Description: Inhibition of KRas-mediated phosphorylation of ERK (Cisbio HTRF pERK), AsPC-1 cells. In kind it is cell-based. As to conditions: Homo sapiens; for IC50: ASPC1, AsPC-1 cells, HTRF pERK. The procedure, abridged:
as §1

T2 sequence (P01116 1-169 isoform P01116-2 G12R): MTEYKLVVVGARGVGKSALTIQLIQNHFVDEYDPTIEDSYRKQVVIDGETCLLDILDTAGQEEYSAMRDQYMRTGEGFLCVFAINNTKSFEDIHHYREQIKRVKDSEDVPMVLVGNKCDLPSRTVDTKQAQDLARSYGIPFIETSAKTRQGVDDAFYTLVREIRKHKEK
T3 sequence (P01116 1-169 isoform P01116-2 G12V): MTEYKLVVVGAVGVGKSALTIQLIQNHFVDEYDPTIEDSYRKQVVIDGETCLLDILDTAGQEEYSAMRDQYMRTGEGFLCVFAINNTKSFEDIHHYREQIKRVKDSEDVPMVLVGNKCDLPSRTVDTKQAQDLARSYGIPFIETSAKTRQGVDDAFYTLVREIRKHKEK
T1 sequence (P01116 1-169 isoform P01116-2 G12D): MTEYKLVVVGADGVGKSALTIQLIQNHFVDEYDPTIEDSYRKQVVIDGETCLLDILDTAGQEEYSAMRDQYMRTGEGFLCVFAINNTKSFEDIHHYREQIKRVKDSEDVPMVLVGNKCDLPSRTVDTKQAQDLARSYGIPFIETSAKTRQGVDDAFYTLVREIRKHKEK

As usually defined, the IC50 is the midpoint of a concentration-inhibition curve. Higher therefore signals a need for much substance. `CCc1c(F)ccc2cc(O)cc(-c3ncc4c(NCc5cc(C(=O)N(C)C)n(CCC#N)n5)nc(OC[C@@]56CCCN5C[C@H](F)C6)nc4c3F)c12` [Example 668, 1-(2-cyanoethyl)-3-(((7-(8-ethyl-7-fluoro-3-hydroxynaphthalen-1-yl)-8-fluoro-2-(((2R,7aS)-2-fluorohexahydro-1H-pyrrolizin-7a-yl)methoxy)pyrido[4,3-d]pyrimidin-4-yl)amino)methyl)-N,N-dimethyl-1H-pyrazole-5-carboxamide]: the IC50 on KRas^G12D is 34 nM; at KRas^G12R, 16 nM; in assay [1], above 10000 nM; on KRas^G12V, 12 nM; in assay [2] it was above 10000 nM.

For the compound `CCc1c(F)ccc2cc(O)cc(-c3ncc4c(NCc5cn(C(=O)N(C)C)nc5NC(C)=O)nc(OC[C@@]56CCCN5C[C@H](F)C6)nc4c3F)c12` [Example 675, 3-acetamido-4-(((7-(8-ethyl-7-fluoro-3-hydroxynaphthalen-1-yl)-8-fluoro-2-(((2R,7aS)-2-fluorohexahydro-1H-pyrrolizin-7a-yl)methoxy)pyrido[4,3-d]pyrimidin-4-yl)amino)methyl)-N,N-dimethyl-1H-pyrazole-1-carboxamide], the IC50 on KRas^G12D was 32 nM; at KRas^G12R it was below 2 nM; in assay [1], 2040 nM; on KRas^G12V, 3 nM; in assay [2], 9490 nM.

For orientation: inhibition means the change of the read-out against control, counted positive when it falls. With `CCc1c(F)ccc2cc(O)cc(-c3ncc4c(NCc5cc(C(=O)N(C)C)nn5C5CCC5O)nc(OC[C@@]56CCCN5C[C@H](F)C6)nc4c3F)c12` (stereo partly drawn) [Example 677, 5-(((7-(8-ethyl-7-fluoro-3-hydroxynaphthalen-1-yl)-8-fluoro-2-(((2R,7aS)-2-fluorotetrahydro-1H-pyrrolizin-7a(5H)-yl)methoxy)pyrido[4,3-d]pyrimidin-4-yl)amino)methyl)-1-(2-hydroxycyclobutyl)-N,N-dimethyl-1H-pyrazole-3-carboxamide], the IC50 is 13 nM at KRas^G12D, below 2 nM on KRas^G12R, 4580 nM in assay [1] and below 2 nM on KRas^G12V. In addition, the inhibition at 0.1 µM in assay [1] (NCI-H727, 3 h, single point, 100 nM compound, 3 hrs, H727 cells) was 2%; in assay [2] (ASPC1, 3 h, single point, 100 nM compound, 3 hrs, AsPC-1 cells), -8%.

Turning to `CCc1c(F)ccc2cc(O)cc(-c3ncc4c(NCc5cc(C(=O)N(C)C)nn5[C@H]5C[C@@H](O)C5)nc(OC[C@@]56CCCN5C[C@H](F)C6)nc4c3F)c12` [Example 678, 5-(((7-(8-ethyl-7-fluoro-3-hydroxynaphthalen-1-yl)-8-fluoro-2-(((2R,7aS)-2-fluorohexahydro-1H-pyrrolizin-7a-yl)methoxy)pyrido[4,3-d]pyrimidin-4-yl)amino)methyl)-1-(cis-3-hydroxycyclobutyl)-N,N-dimethyl-1H-pyrazole-3-carboxamide], the IC50 is 89 nM on KRas^G12D; 16 nM on KRas^G12R; above 10000 nM in assay [1]; 11 nM at KRas^G12V; above 10000 nM in assay [2].

`CCc1c(F)ccc2cc(O)cc(-c3ncc4c(N5CCCn6nc(C(=O)N(C)CCO)cc6C5)nc(OC[C@@]56CCCN5C[C@H](F)C6)nc4c3F)c12` [Example 679, 5-(7-(8-ethyl-7-fluoro-3-hydroxynaphthalen-1-yl)-8-fluoro-2-(((2R,7aS)-2-fluorohexahydro-1H-pyrrolizin-7a-yl)methoxy)pyrido[4,3-d]pyrimidin-4-yl)-N-(2-hydroxyethyl)-N-methyl-5,6,7,8-tetrahydro-4H-pyrazolo[1,5-a][1,4]diazepine-2-carboxamide]: the IC50 was 124 nM on KRas^G12D; 190 nM at KRas^G12R; 9490 nM in assay [1]; 105 nM at KRas^G12V; above 10000 nM in assay [2].

Turning to `CCc1c(F)ccc2cc(O)cc(-c3ncc4c(NCc5cc(C(=O)N(C)C)n([C@H]6C[C@H](O)C6)n5)nc(OC[C@@]56CCCN5C[C@H](F)C6)nc4c3F)c12` [Example 680, 3-(((7-(8-ethyl-7-fluoro-3-hydroxynaphthalen-1-yl)-8-fluoro-2-(((2R,7aS)-2-fluorohexahydro-1H-pyrrolizin-7a-yl)methoxy)pyrido[4,3-d]pyrimidin-4-yl)amino)methyl)-1-(trans-3-hydroxycyclobutyl)-N,N-dimethyl-1H-pyrazole-5-carboxamide], the IC50 on KRas^G12D is 473 nM; on KRas^G12R it was 234 nM; in assay [1], above 10000 nM; at KRas^G12V, 43 nM; in assay [2] it was above 10000 nM.

Regarding `CCc1c(F)ccc2cc(O)cc(-c3ncc4c(NCc5cc(C(=O)N(C)C)n([C@H]6C[C@@H](O)C6)n5)nc(OC[C@@]56CCCN5C[C@H](F)C6)nc4c3F)c12` [Example 681, 3-(((7-(8-ethyl-7-fluoro-3-hydroxynaphthalen-1-yl)-8-fluoro-2-(((2R,7aS)-2-fluorohexahydro-1H-pyrrolizin-7a-yl)methoxy)pyrido[4,3-d]pyrimidin-4-yl)amino)methyl)-1-(cis-3-hydroxycyclobutyl)-N,N-dimethyl-1H-pyrazole-5-carboxamide], the IC50 is 497 nM on KRas^G12D; 167 nM on KRas^G12R; above 10000 nM in assay [1]; 51 nM on KRas^G12V; above 10000 nM in assay [2].

Regarding `CCc1c(F)ccc2cc(O)cc(-c3ncc4c(NCc5cc(C(=O)N(C)C)nn5[C@H]5C[C@H](O)C5)nc(OC[C@@]56CCCN5C[C@H](F)C6)nc4c3F)c12` [Example 682, 5-(((7-(8-ethyl-7-fluoro-3-hydroxynaphthalen-1-yl)-8-fluoro-2-(((2R,7aS)-2-fluorotetrahydro-1H-pyrrolizin-7a(5H)-yl)methoxy)pyrido[4,3-d]pyrimidin-4-yl)amino)methyl)-1-(trans-3-hydroxycyclobutyl)-N,N-dimethyl-1H-pyrazole-3-carboxamide], the IC50 on KRas^G12D was 710 nM; at KRas^G12R it was 541 nM; in assay [1] it was above 10000 nM; at KRas^G12V, 192 nM; in assay [2], above 10000 nM.

As for `CCc1c(F)ccc2cc(O)cc(-c3ncc4c(NCc5cc(C(=O)N(C)C)nn5C[C@H]5C[C@H](O)C5)nc(OC[C@@]56CCCN5C[C@H](F)C6)nc4c3F)c12` [Example 686, 5-(((7-(8-ethyl-7-fluoro-3-hydroxynaphthalen-1-yl)-8-fluoro-2-(((2R,7aS)-2-fluorohexahydro-1H-pyrrolizin-7a-yl)methoxy)pyrido[4,3-d]pyrimidin-4-yl)amino)methyl)-1-((trans-3-hydroxycyclobutyl)methyl)-N,N-dimethyl-1H-pyrazole-3-carboxamide], the IC50 was 21 nM at KRas^G12D; 5 nM on KRas^G12R; 8840 nM in assay [1]; 6 nM at KRas^G12V; above 10000 nM in assay [2].

As to `CCc1c(F)ccc2cc(O)cc(-c3ncc4c(NCc5cc(C(=O)N(C)C)nn5C[C@H]5C[C@@H](O)C5)nc(OC[C@@]56CCCN5C[C@H](F)C6)nc4c3F)c12` [Example 687, 5-(((7-(8-ethyl-7-fluoro-3-hydroxynaphthalen-1-yl)-8-fluoro-2-(((2R,7aS)-2-fluorohexahydro-1H-pyrrolizin-7a-yl)methoxy)pyrido[4,3-d]pyrimidin-4-yl)amino)methyl)-1-((cis-3-hydroxycyclobutyl)methyl)-N,N-dimethyl-1H-pyrazole-3-carboxamide], the IC50 at KRas^G12D is 405 nM; at KRas^G12R, 175 nM; in assay [1], above 10000 nM; on KRas^G12V, 145 nM; in assay [2] it was above 10000 nM.
